target: T1, Human recombinant PAI-1 (Homo sapiens, UniProt P05121); experiment: Chromogenic assay for plasminogen activator inhibitor type-1 (PAI-1) antagonism (tPA / glu-plasminogen / Spectrozyme PL, OD405); assay type: biochemical; details: determined by comparison with control reactions; assay variant (#1-#4) not given; read-out: IC50 for PAI antagonist activity
T1 construct: made in house; host or cells: E. coli
Procedure: PAI-1 antagonist assays were performed in a buffer containing Tris, 0.05 mol/L, pH 7.4, 100 mmol/L NaCl, 1 mmol/L EDTA, and 0.01% Tween 80. Human recombinant PAI-1 purified from E coli. and human recombinant tPA were diluted into this standard assay buffer at concentrations of approximately 500-600 ng/mL and 100 ng/mL, respectively. PAI-1 antagonists were dissolved first in DMSO at a concentration of approximately 5 mg/mL, and these solutions were then diluted into the standard reaction buffer to achieve a final compound concentration of 1 mg/mL. Native, purified human glu-plasminogen was purchased from Boehringer Mannheim and was supplied as a lyophilized powder, which was first reconstituted in sterile water to a concentration of 55 μmol/L and then diluted to a concentration of 0.825 μmol/L in standard assay buffer. The chromogenic substrate Spectrozyme PL (H—D-Norleucyl-hexahydrotyrosyl-lysine-p-nitroanilide, American Diagnostica) was prepared as a stock solution with a concentration of 2.5 mmol/L in sterile water. Human fibrin monomer (DESAFIB) was purchased from American Diagnostica and was supplied as a lyophilized powder, which was reconstituted in standard assay buffer at a concentration of 100 μg/mL.
The chromogenic assay utilized the reagents described above. Fresh reagent solutions were prepared prior to each assay. Assays were performed in individual wells of standard 96 well mocrotiter assay plates. Standard assays were prepared as follows:
The following reagents were combined:
The plate was agitated or the individual 25 μL mixtures were pipetted up and down once or twice to assure proper mixing of reagents. The resulting mixture was incubated 15 minutes at room temperature (approximately 21° C.).
The following was added to each reaction:
The microtiter assay plate was then placed into a Molecular Devices Thermomax or Spectromax Plate Reader, agitated to assure thorough mixing of reagents, and incubated at 37° C. The OD405 of each reaction mixture is measured every minute for 1 hour. Control reactions which lack PAI-1; PAI-1 and test compound; t-PA; or t-PA, PAI-1 and test compound were performed in each assay.
Assay #2 was performed exactly as assay #1 except that a 10 minute preincubation of the test compound and PAI-1 was performed at room temperature prior to the addition of t-PA.
Assay #3 was performed exactly as assay #1 except that a wide range of concentrations of each test compound, depending upon the potency of the individual compound, was used in the assay.
Assay #4 was performed exactly as assay #2 except that a wide range of concentrations of each test compound, depending upon the potency of the individual compound, was used in the assay.
The generated plasmin cleaved the chromogenic substrate, Spectrozyme PL, producing pNA (para-nitroaniline). The pNA was detected spectrophotometrically at 405 nm.
The degree of inhibition at various concentrations and/or the IC50 value for the compounds provided herein was determined by comparison with control reactions. The IC50 for PAI antagonist activity for each of the compounds specifically disclosed herein has been measured.

T1 sequence (P05121 24-402): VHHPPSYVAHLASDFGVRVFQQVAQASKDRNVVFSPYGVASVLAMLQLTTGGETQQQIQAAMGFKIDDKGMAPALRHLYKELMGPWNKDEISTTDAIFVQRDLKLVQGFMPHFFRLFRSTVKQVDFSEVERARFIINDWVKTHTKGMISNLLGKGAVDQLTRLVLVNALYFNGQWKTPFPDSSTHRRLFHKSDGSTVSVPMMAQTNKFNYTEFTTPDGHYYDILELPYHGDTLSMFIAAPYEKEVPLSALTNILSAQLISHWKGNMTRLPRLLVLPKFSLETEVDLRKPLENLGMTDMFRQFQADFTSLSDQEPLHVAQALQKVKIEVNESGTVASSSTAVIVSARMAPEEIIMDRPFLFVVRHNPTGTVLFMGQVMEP

Compound	IC50 [µM]
O=C(C(=O)c1cc(I)c(O)c(I)c1)c1cc(I)c(O)c(I)c1 [1,2-bis-(4-hydroxy-3,5-diiodophenyl)ethane-1,2-dione]	< 50
Cc1ccccc1COc1c(I)cc(C(=O)O)cc1I [3,5-diiodo-4-(2-methylbenzyloxy)benzoic acid]	< 50
O=C(O)c1cc(I)c(OCc2ccc(I)cc2)c(I)c1 [3,5-diiodo-4-(4-iodobenzyloxy)benzoic acid]	< 10
O=C(O)CCc1cc(I)c(OCc2ccc(I)cc2)c(I)c1 [3-[3,5-diiodo-4-(4-iodobenzyloxy)phenyl]propionic acid]	< 10
O=C(O)c1cc(I)c(OCc2c(F)cccc2F)c(I)c1 [4-(2,6-difluorobenzyloxy)-3,5-diiodobenzoic acid]	< 100
O=C(O)CCCCCCCCCCOc1c(I)cc(C(=O)O)cc1I [4-(10-carboxydecyloxy)-3,5-diiodobenzoic acid]	< 50
O=C(c1ccccc1)c1cc(I)c(O)c(I)c1 [(4-hydroxy-3,5-diiodophenyl)-phenyl-methanone]	< 100
O=C(c1cc(I)c(O)c(I)c1)c1cc(I)c(OCc2cccc(I)c2)c(I)c1 [[3,5-diiodo-4-(3-iodobenzyloxy)phenyl]-(4-hydroxy-3,5-diiodophenyl)methanone]	< 10
O=C(O)COc1c(I)cc(C(=O)c2cc(I)c(O)c(I)c2)cc1I [[4-(4-hydroxy-3,5-diiodobenzoyl)-2,6-diiodophenoxy]acetic acid]	< 100
O=C(c1cc(I)c(O)c(I)c1)c1cc(I)c(O)c(I)c1 [bis(4-hydroxy-3,5-diiodophenyl)methanone]	< 50
